Measured values reported in PMC3152585 (Dental materials : official publication of the Academy of …, 2011).
Converted amounts (≈) assume the structure as drawn. “And” between values parts separate entries of the source, which are not always exact repeats. Identical values can stand only once. Marks after values point to notes of the source that are not given here. One block for each compound: values may come before it.

What was measured:
[1] = test system: matrix-bound endogenous MMPs of dentin; experiment: Loss of dry mass of demineralized dentin beams over 30 days; assay type: biochemical, human; conditions: for % Inhibition (loss of dry mass): vs buffer control; for Loss of dry mass (%): mean ± SEM, n=10, buffer control -21.02
[2] = test system: matrix-bound endogenous MMPs of dentin; experiment: Solubilization of collagen peptides; assay type: biochemical, human; conditions: 30 days, vs buffer control
[3] = target: recombinant human MMP-9 (rhMMP-9) (Homo sapiens, UniProt P14780); experiment: Sensolyte Generic MMP colorimetric assay with soluble rhMMP-9; conditions: for % Inhibition of soluble rhMMP-9: alcohol 4.28 M; for % Inhibition of soluble rhMMP-9 / IC50 (moles/L) for rhMMP-9: mean ± SEM, n=5; for IC50 (moles/L) for rhMMP-9: from regression of percent inhibition vs alcohol concentration
[4] = physchem; conditions: aqueous buffer
[5] = test system: MMP-2; conditions: 5 wt% monomeric HEMA, PAGE gels; cited from earlier work
[6] = read-out: % Inhibition of soluble rhMMP-9

Chain of recombinant human MMP-9 (rhMMP-9) (P14780 107-707 limits assumed): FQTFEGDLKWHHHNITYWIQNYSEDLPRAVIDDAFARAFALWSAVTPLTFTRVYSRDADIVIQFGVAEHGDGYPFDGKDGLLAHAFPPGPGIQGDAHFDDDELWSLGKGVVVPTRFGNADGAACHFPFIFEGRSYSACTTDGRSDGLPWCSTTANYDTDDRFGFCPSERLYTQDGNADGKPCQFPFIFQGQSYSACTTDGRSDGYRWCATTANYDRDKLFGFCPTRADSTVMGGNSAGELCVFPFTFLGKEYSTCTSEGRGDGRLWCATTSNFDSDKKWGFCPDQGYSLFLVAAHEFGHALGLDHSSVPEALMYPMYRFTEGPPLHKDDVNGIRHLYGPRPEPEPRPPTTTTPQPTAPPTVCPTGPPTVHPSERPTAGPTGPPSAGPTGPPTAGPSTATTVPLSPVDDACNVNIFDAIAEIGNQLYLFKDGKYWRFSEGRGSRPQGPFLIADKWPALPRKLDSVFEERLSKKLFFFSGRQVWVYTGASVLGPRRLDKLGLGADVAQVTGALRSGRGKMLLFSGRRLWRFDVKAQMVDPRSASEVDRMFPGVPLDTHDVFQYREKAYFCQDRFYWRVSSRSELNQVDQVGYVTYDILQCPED

% Inhibition of soluble rhMMP-9 [3]: 79.7 ± 0.18%^F
IC50 (moles/L) for rhMMP-9 [3]: 2.7 moles/L and 2.7 ± 0.13%^d moles/L
SMILES: CCCO [1-propanol]
% Inhibition (loss of dry mass) ([1]; alcohol 4.28 M): 80.2%
% Inhibition (solubilization of HYP) ([2]; alcohol 4.28 M): 78.2%

% Inhibition of soluble rhMMP-9 [3]: 52.7 ± 0.18%^D
IC50 (moles/L) for rhMMP-9 [3]: 4.4 ± 0.13%^e moles/L
SMILES: CC(C)O [2-propanol]

SMILES: OCCCO [1,3-propanediol]
Loss of dry mass (%) ([1]; alcohol 4.28 M): -3.22 ± 0.31% (10)^A

IC50 (moles/L) for rhMMP-9 [3]: 2.7 ± 0.18%^d moles/L
inhibition at 170000 µM [3, 6]: 21.5 ± 0.63%
SMILES: CCCCCCC(C)O (stereo not drawn) [2-octanol]

SMILES: CCCCC(O)CC (stereo not drawn) [3-heptanol]
IC50 (moles/L) for rhMMP-9 [3]: 0.5 ± 0.04%^b moles/L
inhibition at 170000 µM [3, 6]: 17.1 ± 0.54%

IC50 (moles/L) for rhMMP-9 [3]: 0.4 ± 0.04%^b moles/L
inhibition at 170000 µM [3, 6]: 35.1 ± 1.16%
SMILES: CCCC(O)CC (stereo not drawn) [3-hexanol]

% Inhibition of soluble rhMMP-9 [3]: 78.7 ± 0.94%^F
IC50 (moles/L) for rhMMP-9 [3]: 0.5 ± 0.04%^b moles/L
SMILES: CCC(C)O (stereo not drawn) [2-butanol]
% Inhibition (loss of dry mass) ([1]; alcohol […]): 80.2%
% Inhibition (solubilization of HYP) ([2]; alcohol […]): 82.9%

IC50 (moles/L) for rhMMP-9 [3]: 0.3 ± 0.22%^b moles/L
inhibition at 170000 µM [3, 6]: 25.4 ± 1.21%
SMILES: CCCCCCCCO [1-octanol]

inhibition at 170000 µM [3, 6]: 28.3 ± 0.4%
SMILES: CCCCCCO [1-hexanol]

IC50 (moles/L) for rhMMP-9 [3]: 1.1 ± 0.04%^c moles/L
inhibition at 170000 µM [3, 6]: 17.7 ± 0.27%
SMILES: CCCCC(O)CCC (stereo not drawn) [4-octanol]

SMILES: C=C(C)C(=O)OCCO [HEMA, 2-hydroxyethylmethacrylate]
solubility [4]: 4280 mM (≈ 557 mg/mL)
% Inhibition (loss of dry mass) ([1]; 0.86 M): 80.7%
% Inhibition (loss of dry mass) ([1]; […]): 79.1%
% Inhibition (loss of dry mass) ([1]; alcohol 4.28 M): 80.8%
Inhibition of MMP-2 [5]: about 80%
% Inhibition (solubilization of HYP) ([2]; 0.86 M): 88.1%
% Inhibition (solubilization of HYP) ([2]; […]): 83.6%
% Inhibition (solubilization of HYP) ([2]; alcohol 4.28 M): 85.6%
IC50 [3]: 100 ± 90 mM
Inhibition of rhMMP-9 ([3]; 2.2 vol% HEMA, data not shown): 98%
Inhibition of MMP-9 relative to the same concentration of ethanol ([3]; compared to ethanol): nineteen times more

% Inhibition of soluble rhMMP-9 [3]: 14.3 ± 2.06%^A
IC50 (moles/L) for rhMMP-9 [3]: 19.6 ± 0.36%^a moles/L
SMILES: CCO [ethanol]

IC50 (moles/L) for rhMMP-9 [3]: 3.0 ± 0.18%^d moles/L
inhibition at 170000 µM [3, 6]: 13.7 ± 2.33%
SMILES: CCCCCC(C)O (stereo not drawn) [2-heptanol]

IC50 (moles/L) for rhMMP-9 [3]: 1.6 ± 0.09%^c moles/L
inhibition at 170000 µM [3, 6]: 13.2 ± 0.67%
SMILES: CCCCC(C)O (stereo not drawn) [2-hexanol]

SMILES: CC(C)(C)O [tert-butanol]
Loss of dry mass (%) ([1]; alcohol 4.28 M): -3.52 ± 0.28% (10)^A
% Inhibition (loss of dry mass) ([1]; alcohol 4.28 M): 83.3%

inhibition at 860000 µM [3, 6]: 28.5 ± 0.54%
SMILES: CCCCCO [1-pentanol]
